Reference: ChEMBL document CHEMBL1201862, “PubChem BioAssay data set” (2004)
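Test compounds were applied to cells in 96-well plates for 48 hours at 5 doses. GI50: concentration for 50% inhibition of growth.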 Activity calls are given as the source filed them. Rule as the data show it: active = GI50 up to about 1.1 µM and inactive = higher.

Experiments:
Test in all cases: growth of human tumour cells (NCI), 48 h
SK-MEL-2 = system: SK-MEL-2
SF-268 = system: SF-268
NCI-H460 = system: NCI-H460
SK-MEL-5 = system: SK-MEL-5
K562 = system: K562
DMS-114 = system: DMS-114
SW-620 = system: SW-620
OVCAR-4 = system: OVCAR-4
EKVX = system: EKVX
OVCAR-5 = system: OVCAR-5
SF-539 = system: SF-539
NCI-H226 = system: NCI-H226
CAKI-1 = system: CAKI-1
A498 = system: A498
DLD-1 = system: DLD-1
LOX IMVI = system: LOX IMVI
HCT-116 = system: HCT-116
LXFL 529 = system: LXFL 529
HL-60 = system: HL-60
RXF 393 = system: RXF 393
DMS-273 = system: DMS-273
SR = system: SR
UACC-62 = system: UACC-62
HCT-15 = system: HCT-15
U-251 = system: U-251
HCC 2998 = system: HCC 2998
MOLT-4 = system: MOLT-4
M14 = system: M14
RPMI-8226 = system: RPMI-8226
HT-29 = system: HT-29
UO-31 = system: UO-31
SK-OV-3 = system: SK-OV-3
SNB-78 = system: SNB-78
KM-20L2 = system: KM-20L2
SK-MEL-28 = system: SK-MEL-28
HOP-92 = system: HOP-92
NCI-H23 = system: NCI-H23
SNB-19 = system: SNB-19
A549 = system: A549
CCRF-CEM = system: CCRF-CEM
786-0 = system: 786-0
NCI-H522 = system: NCI-H522
SNB-75 = system: SNB-75
M19-MEL = system: M19-MEL
ACHN = system: ACHN
SF-295 = system: SF-295
IGROV-1 = system: IGROV-1
COLO 205 = system: COLO 205
SN12C = system: SN12C
TK-10 = system: TK-10
UACC-257 = system: UACC-257
Malme-3M = system: Malme-3M
OVCAR-8 = system: OVCAR-8
HOP-18 = system: HOP-18
KM12 = system: KM12
OVCAR-3 = system: OVCAR-3
HOP-62 = system: HOP-62
PC-3 = system: PC-3
MDA-N = system: MDA-N
NCI/ADR-RES = system: NCI/ADR-RES
Hs-578T = system: Hs-578T
BT-549 = system: BT-549
MDA-MB-435 = system: MDA-MB-435

## O=C(CC1(O)C(=O)Nc2ccccc21)c1ccc(Cl)c(Cl)c1 (configuration not stated)
SK-MEL-2
  GI50: > 100 µM (inactive)
SF-268
  GI50: > 100 µM (inactive)
NCI-H460
  GI50: > 100 µM (inactive)
SK-MEL-5
  GI50: > 100 µM (inactive)
K562
  GI50: > 100 µM (inactive)
DMS-114
  GI50: > 100 µM (inactive)
SW-620
  GI50: > 100 µM (inactive)
OVCAR-4
  GI50: > 100 µM (inactive)
EKVX
  GI50: 69.3 µM (inactive)
OVCAR-5
  GI50: > 100 µM (inactive)
SF-539
  GI50: > 100 µM (inactive)
NCI-H226
  GI50: > 100 µM (inactive)
CAKI-1
  GI50: > 100 µM (inactive)
A498
  GI50: > 100 µM (inactive)
DLD-1
  GI50: > 100 µM (inactive)
LOX IMVI
  GI50: > 100 µM (inactive)
HCT-116
  GI50: > 100 µM (inactive)
LXFL 529
  GI50: > 100 µM (inactive)
HL-60
  GI50: 22.8 µM (inactive)
RXF 393
  GI50: > 100 µM (inactive)
DMS-273
  GI50: > 100 µM (inactive)
SR
  GI50: > 100 µM (inactive)
UACC-62
  GI50: > 100 µM (inactive)
HCT-15
  GI50: > 100 µM
U-251
  GI50: > 100 µM (inactive)
HCC 2998
  GI50: > 100 µM (inactive)
MOLT-4
  GI50: > 100 µM (inactive)
M14
  GI50: > 100 µM (inactive)
RPMI-8226
  GI50: > 100 µM (inactive)
HT-29
  GI50: > 100 µM (inactive)
UO-31
  GI50: > 100 µM (inactive)
SK-OV-3
  GI50: > 100 µM (inactive)
SNB-78
  GI50: 97.3 µM (inactive)
KM-20L2
  GI50: > 100 µM (inactive)
SK-MEL-28
  GI50: > 100 µM (inactive)
HOP-92
  GI50: > 100 µM (inactive)
NCI-H23
  GI50: > 100 µM (inactive)
SNB-19
  GI50: > 100 µM (inactive)
A549
  GI50: > 100 µM (inactive)
CCRF-CEM
  GI50: 63.8 µM (inactive)
786-0
  GI50: > 100 µM (inactive)
NCI-H522
  GI50: > 100 µM (inactive)
SNB-75
  GI50: > 100 µM (inactive)
M19-MEL
  GI50: 77.4 µM (inactive)
ACHN
  GI50: > 100 µM (inactive)
SF-295
  GI50: > 100 µM (inactive)
IGROV-1
  GI50: > 100 µM (inactive)
COLO 205
  GI50: > 100 µM (inactive)
SN12C
  GI50: > 100 µM (inactive)

## O=C1OC(O)C(Oc2c(Cl)cccc2Cl)=C1Cl (configuration not stated)
SK-MEL-2
  GI50: 15.3 µM (inactive)
SF-268
  GI50: 16 µM (inactive)
NCI-H460
  GI50: 15.5 µM (inactive)
SK-MEL-5
  GI50: 14.2 µM (inactive)
K562
  GI50: 17.3 µM (inactive)
TK-10
  GI50: 23.6 µM (inactive)
UACC-257
  GI50: 19.5 µM (inactive)
SW-620
  GI50: 15.1 µM (inactive)
EKVX
  GI50: 29.6 µM (inactive)
OVCAR-5
  GI50: 19.4 µM (inactive)
Malme-3M
  GI50: 26.5 µM (inactive)
SF-539
  GI50: 17 µM (inactive)
NCI-H226
  GI50: 18.4 µM (inactive)
CAKI-1
  GI50: 18.9 µM (inactive)
A498
  GI50: 22.2 µM (inactive)
DLD-1
  GI50: 15.7 µM (inactive)
LOX IMVI
  GI50: 17.9 µM (inactive)
HCT-116
  GI50: 14.8 µM (inactive)
LXFL 529
  GI50: 16.6 µM (inactive)
HL-60
  GI50: 20 µM (inactive)
RXF 393
  GI50: 11.3 µM (inactive)
DMS-273
  GI50: 15.8 µM (inactive)
SR
  GI50: 21.7 µM (inactive)
UACC-62
  GI50: 11.9 µM (inactive)
HCT-15
  GI50: 15.6 µM
U-251
  GI50: 13.8 µM (inactive)
HCC 2998
  GI50: 23.3 µM (inactive)
MOLT-4
  GI50: 21.8 µM (inactive)
M14
  GI50: 17 µM (inactive)
RPMI-8226
  GI50: 18.1 µM (inactive)
OVCAR-8
  GI50: 17.5 µM (inactive)
HT-29
  GI50: 18.4 µM (inactive)
UO-31
  GI50: 14.1 µM (inactive)
SK-OV-3
  GI50: 19.5 µM (inactive)
SNB-78
  GI50: 36.1 µM (inactive)
HOP-18
  GI50: 19.1 µM (inactive)
KM-20L2
  GI50: 17.8 µM (inactive)
SK-MEL-28
  GI50: 20.2 µM (inactive)
KM12
  GI50: 22.3 µM (inactive)
HOP-92
  GI50: 18 µM (inactive)
NCI-H23
  GI50: 17.7 µM (inactive)
SNB-19
  GI50: 27.5 µM (inactive)
A549
  GI50: 17.2 µM (inactive)
CCRF-CEM
  GI50: 19.9 µM (inactive)
786-0
  GI50: 17.1 µM (inactive)
NCI-H522
  GI50: 12.5 µM (inactive)
SNB-75
  GI50: 25.6 µM (inactive)
OVCAR-3
  GI50: 13.5 µM (inactive)
HOP-62
  GI50: 17.7 µM (inactive)
ACHN
  GI50: 17.2 µM (inactive)
SF-295
  GI50: 17.5 µM (inactive)
IGROV-1
  GI50: 17.2 µM (inactive)
COLO 205
  GI50: 16.5 µM (inactive)
SN12C
  GI50: 17 µM (inactive)

## CO[C@H]1C[C@@H]2CC[C@@H](C)[C@@](O)(O2)C(=O)C(=O)N2CCCC[C@H]2C(=O)O[C@H]([C@H](C)C[C@@H]2CC[C@@H](O)[C@H](OC)C2)CC(=O)[C@H](C)C=C(C)[C@@H](O)[C@@H](OC)C(=O)[C@H](C)C[C@H](C)/C=C/C=C/C=C1C
SF-268
  GI50: 1.77 µM (inactive)
PC-3
  GI50: 0.0211 µM (active)
SK-MEL-5
  GI50: 0.417 µM (active)
TK-10
  GI50: 0.46 µM (active)
DMS-114
  GI50: 0.1 µM (active)
MDA-N
  GI50: 1.56 µM (inactive)
OVCAR-4
  GI50: < 0.01 µM (active)
EKVX
  GI50: < 0.0104 µM (active)
Malme-3M
  GI50: 0.0243 µM (active)
SF-539
  GI50: < 0.0111 µM (active)
DLD-1
  GI50: 10 µM (inactive)
LOX IMVI
  GI50: 0.0175 µM (active)
HCT-116
  GI50: 5.71 µM (inactive)
DMS-273
  GI50: 11 µM (inactive)
SR
  GI50: < 0.01 µM (active)
HCT-15
  GI50: 0.117 µM
HCC 2998
  GI50: 0.167 µM (active)
MOLT-4
  GI50: 0.0272 µM (active)
NCI/ADR-RES
  GI50: 0.358 µM (active)
M14
  GI50: 7.55 µM (inactive)
Hs-578T
  GI50: 0.0193 µM (active)
OVCAR-8
  GI50: 0.0564 µM (active)
HT-29
  GI50: 0.817 µM (active)
UO-31
  GI50: < 0.01 µM (active)
SNB-78
  GI50: 0.1 µM (active)
HOP-18
  GI50: 11.8 µM (inactive)
KM-20L2
  GI50: 16 µM (inactive)
SK-MEL-28
  GI50: 0.251 µM (active)
KM12
  GI50: 5.96 µM (inactive)
NCI-H23
  GI50: 0.394 µM (active)
CCRF-CEM
  GI50: < 0.01 µM (active)
BT-549
  GI50: 1.12 µM (inactive)
786-0
  GI50: 0.108 µM (active)
NCI-H522
  GI50: 1.34 µM (inactive)
MDA-MB-435
  GI50: 1.28 µM (inactive)
M19-MEL
  GI50: 0.1 µM (active)
HOP-62
  GI50: < 0.0107 µM (active)
IGROV-1
  GI50: < 0.01 µM (active)
COLO 205
  GI50: 8.24 µM (inactive)
